For 25 molecules, IC50 results are on record in patent US11987588B2, “Modulators of the beta-3 adrenergic receptor useful for the treatment or prevention of heart failure and disorders related thereto” (Arena Pharmaceuticals, Inc., priority 2017, dated 2024).

The target of the test is Beta-3 Adrenergic Receptor (Homo sapiens (Human), UniProt P13945). The experiment in a line: Homogeneous Time-Resolved Fluorescence (HTRF) cAMP antagonist assay, IC50 determination. Type of test: cell-based. The settings on record: CHO-K1 cells stably expressing recombinant receptor, isoproterenol at EC90. A digest of the protocol: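 CHO-K1 cells stably expressing receptor, 1500 cells/well, preincubated briefly with 10-point 5-fold compound series (top final typically 10 or 100 μM) in PBS with 1 mM IBMX, then challenged with isoproterenol at EC90 for 1 h at room temperature. cAMP read by HTRF against on-plate standard curve; IC50 from dose-response.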
Chain of Beta-3 Adrenergic Receptor (P13945 whole entry, species assumed): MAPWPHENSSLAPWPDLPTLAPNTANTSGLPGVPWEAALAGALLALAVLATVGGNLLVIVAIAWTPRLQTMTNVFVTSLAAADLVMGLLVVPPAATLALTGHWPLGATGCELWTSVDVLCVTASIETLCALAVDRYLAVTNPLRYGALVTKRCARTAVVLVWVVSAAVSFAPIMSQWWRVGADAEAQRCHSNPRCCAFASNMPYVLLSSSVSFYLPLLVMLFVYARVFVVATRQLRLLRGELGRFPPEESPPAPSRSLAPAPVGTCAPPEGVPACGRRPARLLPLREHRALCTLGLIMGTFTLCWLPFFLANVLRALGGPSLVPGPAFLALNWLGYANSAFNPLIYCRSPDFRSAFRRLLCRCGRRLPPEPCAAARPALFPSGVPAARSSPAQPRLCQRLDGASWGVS
On the technique in general: In TR-FRET formats the signal depends on donor and acceptor labels being close together.
As usually defined, the IC50 is the concentration at which inhibition is half-maximal. Take `CNS(=O)(=O)c1cccc(OC[C@@H](O)CNC2COC3(CCN(S(=O)(=O)c4ccc5cc(Cl)ccc5c4)CC3)C2)c1` (stereo partly drawn) [Compound 264, 3-((2S)-3-(8-(6-chloronaphthalen-2-ylsulfonyl)-1-oxa-8-azaspiro[4.5]decan-3-ylamino)-2-hydroxypropoxy)-N-methylbenzenesulfonamide]: the IC50 is 39 nM.

`CNS(=O)(=O)c1cccc(OC[C@@H](O)CNC2COC3(CCN(S(=O)(=O)c4cccc(C)c4C)CC3)C2)c1` (stereo partly drawn) [Compound 265, 3-((2S)-3-(8-(2,3-dimethylphenylsulfonyl)-1-oxa-8-azaspiro[4.5]decan-3-ylamino)-2-hydroxypropoxy)-N-methylbenzenesulfonamide]: the IC50 is 28.8 nM.

Consider `CNS(=O)(=O)c1cccc(OC[C@@H](O)CN[C@@H]2COC3(CCN(S(=O)(=O)c4ccc(OC)c(C)c4)CC3)C2)c1` [Compound 266, 3-((S)-2-hydroxy-3-((S)-8-(4-methoxy-3-methylphenylsulfonyl)-1-oxa-8-azaspiro[4.5]decan-3-ylamino)propoxy)-N-methylbenzenesulfonamide], for which the IC50 came to 24.7 nM.

For the molecule `CNS(=O)(=O)c1cccc(OC[C@@H](O)CN[C@H]2COC3(CCN(S(=O)(=O)c4ccc(OC)c(C)c4)CC3)C2)c1` [Compound 267, 3-((S)-2-hydroxy-3-((R)-8-(4-methoxy-3-methylphenylsulfonyl)-1-oxa-8-azaspiro[4.5]decan-3-ylamino)propoxy)-N-methylbenzenesulfonamide], the IC50 is 9.43 nM.

As to `CNS(=O)(=O)c1cccc(OC[C@@H](O)CN[C@@H]2COC3(CCN(S(=O)(=O)c4cc(C)ccc4F)CC3)C2)c1` [Compound 268, 3-((S)-3-((S)-8-(2-fluoro-5-methylphenylsulfonyl)-1-oxa-8-azaspiro[4.5]decan-3-ylamino)-2-hydroxypropoxy)-N-methylbenzenesulfonamide], the IC50 came out at 12.3 nM.

In the case of `CNS(=O)(=O)c1cccc(OC[C@@H](O)CN[C@H]2COC3(CCN(S(=O)(=O)c4cc(C)ccc4F)CC3)C2)c1` [Compound 269, 3-((S)-3-((R)-8-(2-fluoro-5-methylphenylsulfonyl)-1-oxa-8-azaspiro[4.5]decan-3-ylamino)-2-hydroxypropoxy)-N-methylbenzenesulfonamide], the IC50 is 24.7 nM.

In the case of `CNS(=O)(=O)c1cccc(OC[C@@H](O)CN[C@@H]2COC3(CCN(S(=O)(=O)c4ccc(Br)c(C)c4)CC3)C2)c1` [Compound 270, 3-((S)-3-((S)-8-(4-bromo-3-methylphenylsulfonyl)-1-oxa-8-azaspiro[4.5]decan-3-ylamino)-2-hydroxypropoxy)-N-methylbenzenesulfonamide], the IC50 was found to be 16.7 nM.

For the molecule `CNS(=O)(=O)c1cccc(OC[C@@H](O)CN[C@H]2COC3(CCN(S(=O)(=O)c4ccc(Br)c(C)c4)CC3)C2)c1` [Compound 271, 3-((S)-3-((R)-8-(4-bromo-3-methylphenylsulfonyl)-1-oxa-8-azaspiro[4.5]decan-3-ylamino)-2-hydroxypropoxy)-N-methylbenzenesulfonamide], the IC50 turned out to be 7.53 nM.

In the case of `CCn1cc(-c2cccc(S(=O)(=O)N3CCC4(CC3)CC(NC[C@H](O)COc3cccc(S(=O)(=O)N(C)C)c3)CO4)c2)cn1` (stereo partly drawn) [Compound 272, 3-((2S)-3-(8-(3-(1-ethyl-1H-pyrazol-4-yl)phenylsulfonyl)-1-oxa-8-azaspiro[4.5]decan-3-ylamino)-2-hydroxypropoxy)-N,N-dimethylbenzenesulfonamide], the IC50 came out at 107 nM.

Consider `CN(C)S(=O)(=O)c1cccc(OC[C@@H](O)CNC2COC3(CCN(S(=O)(=O)c4cccc(-c5ccc(CN)cc5)c4)CC3)C2)c1` (stereo partly drawn) [Compound 273, 3-((2S)-3-(8-(4′-(aminomethyl)biphenyl-3-ylsulfonyl)-1-oxa-8-azaspiro[4.5]decan-3-ylamino)-2-hydroxypropoxy)-N,N-dimethylbenzenesulfonamide], for which the IC50 came out at 15.5 nM.

Turning to `CN(C)S(=O)(=O)c1cccc(OC[C@@H](O)CNC2COC3(CCN(S(=O)(=O)c4cccc(-c5ccc(S(N)(=O)=O)cc5)c4)CC3)C2)c1` (stereo partly drawn) [Compound 274, 3′-(3-((S)-3-(3-(N,N-dimethylsulfamoyl)phenoxy)-2-hydroxypropylamino)-1-oxa-8-azaspiro[4.5]decan-8-ylsulfonyl)biphenyl-4-sulfonamide], the IC50 turned out to be 21.1 nM.

Regarding `CN(C)S(=O)(=O)c1cccc(OC[C@@H](O)CNC2COC3(CCN(S(=O)(=O)c4cccc(-c5ccc(N)nc5)c4)CC3)C2)c1` (stereo partly drawn) [Compound 275, 3-((2S)-3-(8-(3-(6-aminopyridin-3-yl)phenylsulfonyl)-1-oxa-8-azaspiro[4.5]decan-3-ylamino)-2-hydroxypropoxy)-N,N-dimethylbenzenesulfonamide], the IC50 amounted to 21.3 nM.

Consider `CN(C)S(=O)(=O)c1cccc(OC[C@@H](O)CNC2COC3(CCN(S(=O)(=O)c4cccc(-c5ccc(OCC#N)cc5)c4)CC3)C2)c1` (stereo partly drawn) [Compound 276, 3-((2S)-3-(8-(4′-(cyanomethoxy)biphenyl-3-ylsulfonyl)-1-oxa-8-azaspiro[4.5]decan-3-ylamino)-2-hydroxypropoxy)-N,N-dimethylbenzenesulfonamide], for which the IC50 is 200 nM.

`CN(C)S(=O)(=O)c1cccc(OC[C@@H](O)CNC2COC3(CCN(S(=O)(=O)c4cccc(-c5ccc(CC#N)cc5)c4)CC3)C2)c1` (stereo partly drawn) [Compound 277, 3-((2S)-3-(8-(4′-(cyanomethyl)biphenyl-3-ylsulfonyl)-1-oxa-8-azaspiro[4.5]decan-3-ylamino)-2-hydroxypropoxy)-N,N-dimethylbenzenesulfonamide]: the IC50 is 46.7 nM.

For `CNS(=O)(=O)c1cccc(OC[C@@H](O)CN[C@@H]2COC3(CCN(S(=O)(=O)c4ccc5c(c4)NC(=O)CO5)CC3)C2)c1` [Compound 278, 3-((S)-2-hydroxy-3-((S)-8-(3-oxo-3,4-dihydro-2H-benzo[b][1,4]oxazin-6-ylsulfonyl)-1-oxa-8-azaspiro[4.5]decan-3-ylamino)propoxy)-N-methylbenzenesulfonamide], the IC50 turned out to be 12.8 nM.

Take `CNS(=O)(=O)c1cccc(OC[C@@H](O)CN[C@H]2COC3(CCN(S(=O)(=O)c4ccc5c(c4)NC(=O)CO5)CC3)C2)c1` [Compound 279, 3-((S)-2-hydroxy-3-((R)-8-(3-oxo-3,4-dihydro-2H-benzo[b][1,4]oxazin-6-ylsulfonyl)-1-oxa-8-azaspiro[4.5]decan-3-ylamino)propoxy)-N-methylbenzenesulfonamide]: the IC50 was determined as 31.6 nM.

Regarding `CNS(=O)(=O)c1cccc(OC[C@@H](O)CN[C@@H]2COC3(CCN(S(=O)(=O)c4cnn(-c5ccccc5)c4C)CC3)C2)c1` [Compound 280, 3-((S)-2-hydroxy-3-((S)-8-(5-methyl-1-phenyl-1H-pyrazol-4-ylsulfonyl)-1-oxa-8-azaspiro[4.5]decan-3-ylamino)propoxy)-N-methylbenzenesulfonamide], the IC50 turned out to be 98 nM.

Consider `CNS(=O)(=O)c1cccc(OC[C@@H](O)CN[C@H]2COC3(CCN(S(=O)(=O)c4cnn(-c5ccccc5)c4C)CC3)C2)c1` [Compound 281, 3-((S)-2-hydroxy-3-((R)-8-(5-methyl-1-phenyl-1H-pyrazol-4-ylsulfonyl)-1-oxa-8-azaspiro[4.5]decan-3-ylamino)propoxy)-N-methylbenzenesulfonamide], for which the IC50 stood at 10.7 nM.

As to `CCn1cc(-c2cccc(S(=O)(=O)N3CCC4(CC3)C[C@H](NC[C@H](O)COc3cccc(S(=O)(=O)NC)c3)CO4)c2)cn1` [Compound 282, 3-((S)-3-((S)-8-(3-(1-ethyl-1H-pyrazol-4-yl)phenylsulfonyl)-1-oxa-8-azaspiro[4.5]decan-3-ylamino)-2-hydroxypropoxy)-N-methylbenzenesulfonamide], the IC50 came to 15.5 nM.

On to `CCn1cc(-c2cccc(S(=O)(=O)N3CCC4(CC3)C[C@@H](NC[C@H](O)COc3cccc(S(=O)(=O)NC)c3)CO4)c2)cn1` [Compound 283, 3-((S)-3-((R)-8-(3-(1-ethyl-1H-pyrazol-4-yl)phenylsulfonyl)-1-oxa-8-azaspiro[4.5]decan-3-ylamino)-2-hydroxypropoxy)-N-methylbenzenesulfonamide], for which the IC50 is 84.6 nM.

Turning to `CNS(=O)(=O)c1cccc(OC[C@@H](O)CN[C@@H]2COC3(CCN(S(=O)(=O)c4cccc(-c5cccnc5)c4)CC3)C2)c1` [Compound 284, 3-((S)-2-hydroxy-3-((S)-8-(3-(pyridin-3-yl)phenylsulfonyl)-1-oxa-8-azaspiro[4.5]decan-3-ylamino)propoxy)-N-methylbenzenesulfonamide], the IC50 is 11.6 nM.

Turning to `CNS(=O)(=O)c1cccc(OC[C@@H](O)CN[C@H]2COC3(CCN(S(=O)(=O)c4cccc(-c5cccnc5)c4)CC3)C2)c1` [Compound 285, 3-((S)-2-hydroxy-3-((R)-8-(3-(pyridin-3-yl)phenylsulfonyl)-1-oxa-8-azaspiro[4.5]decan-3-ylamino)propoxy)-N-methylbenzenesulfonamide], the IC50 came to 25 nM.

In the case of `CNS(=O)(=O)c1cccc(OC[C@@H](O)CN[C@@H]2COC3(CCN(S(=O)(=O)c4cccc(-c5ccc(N)nc5)c4)CC3)C2)c1` [Compound 286, 3-((S)-3-((S)-8-(3-(6-aminopyridin-3-yl)phenylsulfonyl)-1-oxa-8-azaspiro[4.5]decan-3-ylamino)-2-hydroxypropoxy)-N-methylbenzenesulfonamide], the IC50 is 20.5 nM.

`CNS(=O)(=O)c1cccc(OC[C@@H](O)CN[C@H]2COC3(CCN(S(=O)(=O)c4cccc(-c5ccc(N)nc5)c4)CC3)C2)c1` [Compound 287, 3-((S)-3-((R)-8-(3-(6-aminopyridin-3-yl)phenylsulfonyl)-1-oxa-8-azaspiro[4.5]decan-3-ylamino)-2-hydroxypropoxy)-N-methylbenzenesulfonamide]: the IC50 turned out to be 21.9 nM.

For the molecule `CNS(=O)(=O)c1cccc(OC[C@@H](O)CN[C@@H]2COC3(CCN(S(=O)(=O)c4cccc(-c5ccc(CN)cc5)c4)CC3)C2)c1` [Compound 288, 3-((S)-3-((S)-8-(4′-(aminomethyl)biphenyl-3-ylsulfonyl)-1-oxa-8-azaspiro[4.5]decan-3-ylamino)-2-hydroxypropoxy)-N-methylbenzenesulfonamide], the IC50 worked out at 13.4 nM.
